From ChEMBL document CHEMBL4673226, “Development of 5-Aminopyrazole-4-carboxamide-based Bumped-Kinase Inhibitors for Cryptosporidiosis Therapy” (J Med Chem, 2019)
In brackets after ≈: the same amount, converted by molar mass. Activity calls are given as the source filed them. No cut-off for these calls is given here.

Legend:
[1] = Clearance in mouse at 25 mg/kg, po; assay type: ADME, organism-based; settings: in vivo
[2] = Half life in mouse at 25 mg/kg, po; settings: in vivo
[3] = AUC in mouse at 25 mg/kg, po; assay type: ADME, organism-based; set-up: dose 25 mg/kg; settings: in vivo
[4] = Solubility in pH 2.0 solution
[5] = Solubility in pH 6.5 solution
[6] = Protein binding in mouse plasma by dialysis method
HepG2 = experiment: Toxicity in human HepG2 cells; assay type: cell-based
[7] = Toxicity in human CRL-8155 cells; assay type: cell-based
[8] = molecular target: Voltage-gated inwardly rectifying potassium channel KCNH2 (Homo sapiens, UniProt Q12809); experiment: Inhibition of human ERG by thallium flux assay
Cryptosporidium parvum [9] = experiment: Antimicrobial activity against nano-luciferase-expressing Cryptosporidium parvum infected in human HCT8 cells incubated for 72 hrs by luciferase reporter gene assay; assay type: functional, organism-based; settings: HCT-8, 72 h
[10] = Inhibition of Cryptosporidium parvum CDPK1 assessed as reduction in ATP consumption using BioSyntide-2 substrate incubated for 90 mins by luciferase reporter gene assay
[11] = molecular target: Proto-oncogene tyrosine-protein kinase Src (Homo sapiens, UniProt P12931); experiment: Inhibition of SRC (unknown origin); assay type: ADME
in vivo [12] = settings: mouse, po, 25 mg/kg
in vivo [13] = settings: mouse, po, 25 mg/kg; remark: listed apart in the source
Cryptosporidium parvum [14] = experiment: Antimicrobial activity against nano-luciferase-expressing Cryptosporidium parvum infected in IFN-gamma KO B6.129S7-Ifngtm1Ts/J mouse assessed as log reduction of infection at 60 mg/kg, po QD for 5 days beginning on day 6 post infection relative untreated control; settings: time 5 day
[15] = Drug level in mouse fecus at 25 mg/kg, po; settings: read-out: Drug uptake, in vivo
[16] = Protein binding in human plasma by dialysis method
Cryptosporidium parvum [17] = experiment: Antimicrobial activity against nano-luciferase-expressing Cryptosporidium parvum infected in IFN-gamma KO B6.129S7-Ifngtm1Ts/J mouse assessed as log reduction of infection at 25 mg/kg, po QD for 5 days beginning on day 6 post infection relative untreated control; assay type: functional; settings: time 5 day
[18] = Clearance in mouse at 10 mg/kg, po; assay type: ADME, organism-based; settings: in vivo
[19] = AUC in mouse at 10 mg/kg, po; assay type: ADME, organism-based; set-up: dose 10 mg/kg; settings: in vivo
Cryptosporidium parvum [20] = experiment: Antimicrobial activity against nano-luciferase-expressing Cryptosporidium parvum infected in IFN-gamma KO B6.129S7-Ifngtm1Ts/J mouse assessed as log reduction of infection at 30 mg/kg, po BID for 5 days beginning on day 6 post infection relative untreated control; assay type: functional, organism-based; settings: time 5.0 day

Chain of Proto-oncogene tyrosine-protein kinase Src (P12931 2-536 limits assumed): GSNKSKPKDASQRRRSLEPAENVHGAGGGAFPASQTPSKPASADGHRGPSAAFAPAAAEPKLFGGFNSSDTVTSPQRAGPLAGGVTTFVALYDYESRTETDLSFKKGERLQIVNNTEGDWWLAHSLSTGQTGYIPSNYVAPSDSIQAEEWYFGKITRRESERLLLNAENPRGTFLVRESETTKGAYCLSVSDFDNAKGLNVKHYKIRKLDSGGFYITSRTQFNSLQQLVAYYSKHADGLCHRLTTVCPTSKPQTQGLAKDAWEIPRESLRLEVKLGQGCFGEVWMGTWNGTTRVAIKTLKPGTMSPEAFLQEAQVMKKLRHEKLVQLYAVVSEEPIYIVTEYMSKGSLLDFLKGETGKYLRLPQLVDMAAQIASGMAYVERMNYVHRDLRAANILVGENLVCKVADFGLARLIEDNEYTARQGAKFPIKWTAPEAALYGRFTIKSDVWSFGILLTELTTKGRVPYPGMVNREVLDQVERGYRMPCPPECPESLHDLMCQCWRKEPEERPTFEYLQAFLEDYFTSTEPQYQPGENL
Chain of Voltage-gated inwardly rectifying potassium channel KCNH2 (Q12809 whole entry): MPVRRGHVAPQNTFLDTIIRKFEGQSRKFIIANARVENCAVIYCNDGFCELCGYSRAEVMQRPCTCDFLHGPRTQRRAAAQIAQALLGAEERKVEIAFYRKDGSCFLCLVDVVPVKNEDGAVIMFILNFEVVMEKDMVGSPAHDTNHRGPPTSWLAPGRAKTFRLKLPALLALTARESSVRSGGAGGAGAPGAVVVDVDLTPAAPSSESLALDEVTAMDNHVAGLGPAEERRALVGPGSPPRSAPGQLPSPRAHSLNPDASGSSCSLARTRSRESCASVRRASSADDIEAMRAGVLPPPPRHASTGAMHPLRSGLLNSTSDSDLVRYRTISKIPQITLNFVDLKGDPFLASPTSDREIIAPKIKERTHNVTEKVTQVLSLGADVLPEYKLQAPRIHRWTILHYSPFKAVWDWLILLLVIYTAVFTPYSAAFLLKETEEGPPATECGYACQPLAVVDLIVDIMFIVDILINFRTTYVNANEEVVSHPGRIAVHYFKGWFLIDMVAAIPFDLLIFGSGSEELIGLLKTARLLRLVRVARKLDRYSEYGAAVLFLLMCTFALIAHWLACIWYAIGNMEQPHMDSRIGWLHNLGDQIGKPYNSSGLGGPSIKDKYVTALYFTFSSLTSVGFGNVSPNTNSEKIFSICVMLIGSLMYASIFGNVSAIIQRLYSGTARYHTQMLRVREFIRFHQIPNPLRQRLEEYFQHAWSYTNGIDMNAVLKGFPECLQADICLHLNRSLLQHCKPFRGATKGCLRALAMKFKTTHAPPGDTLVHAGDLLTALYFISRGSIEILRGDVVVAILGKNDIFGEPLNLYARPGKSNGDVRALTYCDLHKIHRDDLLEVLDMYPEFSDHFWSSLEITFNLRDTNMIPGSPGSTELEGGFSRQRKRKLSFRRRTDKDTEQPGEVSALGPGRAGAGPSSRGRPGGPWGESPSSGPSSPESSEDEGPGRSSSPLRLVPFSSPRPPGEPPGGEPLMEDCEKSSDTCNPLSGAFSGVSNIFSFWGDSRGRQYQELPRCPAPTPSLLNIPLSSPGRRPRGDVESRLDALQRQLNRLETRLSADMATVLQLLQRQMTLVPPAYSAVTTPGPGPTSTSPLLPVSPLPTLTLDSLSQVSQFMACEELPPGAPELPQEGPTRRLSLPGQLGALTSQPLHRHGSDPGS

Structure (SMILES) | CL/F [1] | AUC [3] | Activity (HepG2) | Activity [7] | IC50 [10] | IC50 [11] | concentration [15] | solubility ([4]; buffer) | solubility ([5]; buffer) | also measured
CC(CCO)n1nc(-c2ccc3nc(OC4CC4)ccc3c2)c(C(N)=O)c1N (configuration not stated) | 0.7 mL/min | 1154.1 µmol·min/L | Non-Toxic | Non-Toxic | 5.9 nM | > 10000 nM | – | – | – | half-life [2]: 1.42 h; solubility ([4]; pH 2.0 solution): > 100 µM; solubility ([5]; pH 6.5 solution): 98 µM (≈ 37.4 µg/mL); fraction unbound [6]: 0.23; IC50 [8]: > 30000 nM; EC50 (Cryptosporidium parvum [9]): 600 nM; Cmax (in vivo [12]): 8.5 µM; Tmax (in vivo [13]): 0.667 h
CCOc1ccc2cc(-c3nn(CC(C)(C)CO)c(N)c3C(N)=O)ccc2c1 | 2.1 mL/min | 621.1 µmol·min/L | Non-Toxic | Non-Toxic | 6.6 nM | 6300 nM | 7.6 µM | > 100 µM | 20.6 µM (≈ 7.88 µg/mL) | FC (Cryptosporidium parvum [14]): -0.03; PPB [16]: 94%; PPB [6]: 92%
CCOc1ccc2cc(-c3nn(C(C)(C)CO)c(N)c3C(N)=O)cnc2c1 | 1 mL/min | 50798.1 µmol·min/L | Non-Toxic | Non-Toxic | 4.1 nM | 4700 nM | 2.9 µM | > 50 µM | > 50 µM | –
CC(C)(CCO)n1nc(-c2cnc3cc(OC4CC4)ccc3c2)c(C(N)=O)c1N | – | – | Non-Toxic | Non-Toxic | 3 nM | > 10000 nM | – | 88.8 µM (≈ 35.1 µg/mL) | – | –
CCOc1ccc2cc(-c3nn(C(C)CCO)c(N)c3C(N)=O)ccc2n1 (configuration not stated) | – | – | Non-Toxic | Non-Toxic | – | – | – | – | – | –
CC(C)(CO)n1nc(-c2ccc3nc(OC4CC4)ccc3c2)c(C(N)=O)c1N | – | – | Non-Toxic | Non-Toxic | – | – | – | – | – | –
CCOc1ccc2cc(-c3nn(C(C)(C)CO)c(N)c3C(N)=O)ccc2c1 | 0.2 mL/min | 9365 µmol·min/L | Non-Toxic | Non-Toxic | 9 nM | > 10000 nM | 7.1 µM | 18.8 µM (≈ 6.93 µg/mL) | 8 µM (≈ 2.95 µg/mL) | log reduction (Cryptosporidium parvum [17]): 0.81
CCOc1ccc2cc(-c3nn(CC(C)(C)CO)c(N)c3C(N)=O)cnc2c1 | – | – | Non-Toxic | Non-Toxic | – | > 10000 nM | – | – | > 100 µM | –
CC(C)(CO)Cn1nc(-c2cnc3cc(OC4CC4)ccc3c2)c(C(N)=O)c1N | – | – | Non-Toxic | Non-Toxic | 0.1 nM | > 10000 nM | – | > 100 µM | > 100 µM | –
CCOc1ccc2cc(-c3nn(CC(C)(C)CO)c(N)c3C(N)=O)ccc2n1 | – | – | Non-Toxic | Non-Toxic | – | – | – | – | – | CL/F [18]: 5.1 mL/min; AUC [19]: 140.2 µmol·min/L
CC(C)(CO)n1nc(-c2ccc3cc(OC4CC4)ccc3c2)c(C(N)=O)c1N | 0.3 mL/min | 41782 µmol·min/L | Non-Toxic | Non-Toxic | 6.9 nM | > 10000 nM | 3.5 µM | 89 µM (≈ 33.9 µg/mL) | 92.9 µM (≈ 35.3 µg/mL) | FC (Cryptosporidium parvum [14]): 4.47; PPB [6]: 80%
CC(C)(CCO)n1nc(-c2ccc3cc(OC4CC4)ccc3c2)c(C(N)=O)c1N | 1 mL/min | 483.2 µmol·min/L | Non-Toxic | Non-Toxic | 3.8 nM | > 10000 nM | – | > 100 µM | – | –
CC(CCO)n1nc(-c2ccc3cc(OC4CC4)ccc3c2)c(C(N)=O)c1N (configuration not stated) | 0.3 mL/min | 4332.8 µmol·min/L | Non-Toxic | Non-Toxic | 6 nM | > 10000 nM | 10.3 µM | > 100 µM | > 100 µM | FC (Cryptosporidium parvum [14]): 4.78; PPB [16]: 95%; PPB [6]: 95%
CCOc1ccc2cc(-c3nn(C(C)(C)CCO)c(N)c3C(N)=O)cnc2c1 | – | – | Non-Toxic | Non-Toxic | 5.7 nM | 2500 nM | – | 87.9 µM (≈ 33.7 µg/mL) | > 100 µM | –
CCOc1ccc2cc(-c3nn(C(C)CCO)c(N)c3C(N)=O)ccc2c1 (configuration not stated) | 0.8 mL/min | 1738 µmol·min/L | Non-Toxic | Non-Toxic | 2 nM | 10000 nM | – | > 100 µM | 56.7 µM (≈ 20.9 µg/mL) | Activity (Cryptosporidium parvum [20]): Active; FC (Cryptosporidium parvum [14]): 2.62; PPB [16]: 88%; PPB [6]: 71%
CCOc1ccc2cc(-c3nn(C(C)CCO)c(N)c3C(N)=O)cnc2c1 (configuration not stated) | – | – | Non-Toxic | Non-Toxic | – | 3500 nM | 1.1 µM | 78 µM (≈ 28.8 µg/mL) | > 100 µM | FC (Cryptosporidium parvum [14]): 3.41; CL/F [18]: 1.9 mL/min; AUC [19]: 339 µmol·min/L; PPB [16]: 84%; PPB [6]: 86%
CC(C)(CO)Cn1nc(-c2ccc3nc(OC4CC4)ccc3c2)c(C(N)=O)c1N | – | – | Non-Toxic | Non-Toxic | – | – | – | – | – | –
C#CCOc1ccc2cc(-c3nn(C(C)(C)C)c(N)c3C(N)=O)ccc2c1 | – | – | Non-Toxic | Non-Toxic | – | – | – | – | – | –
CCOc1ccc2cc(-c3nn(CC4CC4)c(N)c3C(N)=O)ccc2c1 | 0.5 mL/min | 2800.8 µmol·min/L | Non-Toxic | Non-Toxic | 0.03 nM | 10000 nM | 54 µM | – | – | log reduction (Cryptosporidium parvum [17]): 0.76; PPB [16]: 95%; PPB [6]: 97%
CC(C)(CCO)n1nc(-c2ccc3nc(OC4CC4)ccc3c2)c(C(N)=O)c1N | 6.7 mL/min | 193.6 µmol·min/L | Non-Toxic | Non-Toxic | 2.3 nM | > 10000 nM | – | 96 µM (≈ 38 µg/mL) | > 100 µM | –
CC(C)(CO)n1nc(-c2cnc3cc(OC4CC4)ccc3c2)c(C(N)=O)c1N | – | – | Non-Toxic | Non-Toxic | 1.9 nM | > 10000 nM | – | 89 µM (≈ 33.9 µg/mL) | 44.2 µM (≈ 16.9 µg/mL) | –
CCOc1ccc2cc(-c3nn(C(C)(C)CCO)c(N)c3C(N)=O)ccc2n1 | – | – | Non-Toxic | Non-Toxic | – | – | – | – | – | –
